Data taken from PubChem BioAssay (NCI).
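A five-concentration, 48-hour dose response in 96-well plates underlies each endpoint, interpolated linearly between surrounding concentrations. GI50: concentration for 50% inhibition of growth. The concentration for full growth arrest is given as TGI.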

Legend:
Assay in all cases: NCI-60 cell line screen, 48 h
LOX IMVI melanoma = tested on: LOX IMVI melanoma
SW-620 colon = tested on: SW-620 colon
OVCAR-5 ovarian = tested on: OVCAR-5 ovarian
SNB-75 CNS = tested on: SNB-75 CNS
CAKI-1 renal = tested on: CAKI-1 renal
IGROV1 ovarian = tested on: IGROV1 ovarian
SNB-19 CNS = tested on: SNB-19 CNS
MALME-3M melanoma = tested on: MALME-3M melanoma
MDA-MB-435 = tested on: MDA-MB-435
HCT-116 colon = tested on: HCT-116 colon
CCRF-CEM leukemia = tested on: CCRF-CEM leukemia
HCT-15 colon = tested on: HCT-15 colon
PC-3 prostate = tested on: PC-3 prostate
A498 renal = tested on: A498 renal
UACC-257 melanoma = tested on: UACC-257 melanoma
NCI-H522 lung = tested on: NCI-H522 lung
786-0 renal = tested on: 786-0 renal
MOLT-4 leukemia = tested on: MOLT-4 leukemia
DU-145 prostate = tested on: DU-145 prostate
SR leukemia = tested on: SR leukemia
KM12 colon = tested on: KM12 colon
SF-268 CNS = tested on: SF-268 CNS
ACHN renal = tested on: ACHN renal
K-562 leukemia = tested on: K-562 leukemia
UO-31 renal = tested on: UO-31 renal
HL-60(TB) leukemia = tested on: HL-60(TB) leukemia
HOP-62 NSCLC = tested on: HOP-62 NSCLC
HOP-92 NSCLC = tested on: HOP-92 NSCLC
RXF 393 renal = tested on: RXF 393 renal
NCI-H23 lung = tested on: NCI-H23 lung
SK-MEL-5 melanoma = tested on: SK-MEL-5 melanoma
A549 NSCLC = tested on: A549 NSCLC
COLO 205 colon = tested on: COLO 205 colon
OVCAR-8 ovarian = tested on: OVCAR-8 ovarian
NCI-H226 lung = tested on: NCI-H226 lung
NCI/ADR-RES ovarian = tested on: NCI/ADR-RES ovarian
HS 578T breast = tested on: HS 578T breast
TK-10 renal = tested on: TK-10 renal
M14 melanoma = tested on: M14 melanoma
MCF7 breast = tested on: MCF7 breast
RPMI-8226 leukemia = tested on: RPMI-8226 leukemia
SN12C renal = tested on: SN12C renal
SF-295 CNS = tested on: SF-295 CNS
OVCAR-3 ovarian = tested on: OVCAR-3 ovarian
SK-MEL-28 melanoma = tested on: SK-MEL-28 melanoma
SF-539 CNS = tested on: SF-539 CNS
T-47D breast = tested on: T-47D breast
NCI-H460 lung = tested on: NCI-H460 lung
UACC-62 melanoma = tested on: UACC-62 melanoma
HCC-2998 colon = tested on: HCC-2998 colon
SK-MEL-2 melanoma = tested on: SK-MEL-2 melanoma
SK-OV-3 ovarian = tested on: SK-OV-3 ovarian
MDA-MB-231 breast = tested on: MDA-MB-231 breast
BT-549 breast = tested on: BT-549 breast

`Nc1nc(N)c2c(n1)NC(c1sc(Cl)nc1Cl)CC(c1ccc3c(c1)OCO3)=N2` (stereo not drawn) was tested, and the GI50 (LOX IMVI melanoma) was 7.02 µM, the TGI (LOX IMVI melanoma) was 25.5 µM and the GI50 (SW-620 colon) was 2.98 µM. It also gave a TGI (SW-620 colon) of 21.5 µM, a GI50 (OVCAR-5 ovarian) of 6.03 µM and a TGI (OVCAR-5 ovarian) of 33 µM. It also gave a GI50 (SNB-75 CNS) of 1.39 µM, a TGI (SNB-75 CNS) of 7.55 µM and a GI50 (CAKI-1 renal) of 3.17 µM. For the same compound, the TGI (CAKI-1 renal) was over 100 µM, the GI50 (IGROV1 ovarian) was 10.4 µM and the TGI (IGROV1 ovarian) was 47.6 µM. For the same compound, the GI50 (SNB-19 CNS) was 4.83 µM, the TGI (SNB-19 CNS) was 48.2 µM and the GI50 (MALME-3M melanoma) was 14.3 µM. For the same compound, the TGI (MALME-3M melanoma) was 29.1 µM, the GI50 (MDA-MB-435) was 0.353 µM and the TGI (MDA-MB-435) was 11.6 µM. It also gave a GI50 (HCT-116 colon) of 3.42 µM, a TGI (HCT-116 colon) of 16.2 µM and a GI50 (CCRF-CEM leukemia) of 3.02 µM. The TGI (CCRF-CEM leukemia) was 27 µM, the GI50 (HCT-15 colon) was 1.07 µM and the TGI (HCT-15 colon) was 20 µM. It also gave a GI50 (PC-3 prostate) of 5.15 µM, a TGI (PC-3 prostate) of 32.4 µM and a GI50 (A498 renal) of 2.3 µM. The TGI (A498 renal) was 12 µM, the GI50 (UACC-257 melanoma) was 14.6 µM and the TGI (UACC-257 melanoma) was 41.1 µM. For the same compound, the GI50 (NCI-H522 lung) was 2.51 µM, the TGI (NCI-H522 lung) was 13 µM and the GI50 (786-0 renal) was 5.43 µM. For the same compound, the TGI (786-0 renal) was 24.8 µM, the GI50 (MOLT-4 leukemia) was 5.91 µM and the TGI (MOLT-4 leukemia) was 41.9 µM. For the same compound, the GI50 (DU-145 prostate) was 8.45 µM, the TGI (DU-145 prostate) was 34.4 µM and the GI50 (SR leukemia) was 1.9 µM. It also gave a TGI (SR leukemia) of 16.6 µM, a GI50 (KM12 colon) of 3.93 µM and a TGI (KM12 colon) of 21.4 µM. It also gave a GI50 (SF-268 CNS) of 9.84 µM, a TGI (SF-268 CNS) of 30.2 µM and a GI50 (ACHN renal) of 5.86 µM. The TGI (ACHN renal) was 26.4 µM, the GI50 (K-562 leukemia) was 0.542 µM and the TGI (K-562 leukemia) was over 100 µM. The GI50 (UO-31 renal) was 4.52 µM, the TGI (UO-31 renal) was 24.5 µM and the GI50 (HL-60(TB) leukemia) was 3.61 µM. It also gave a TGI (HL-60(TB) leukemia) of 13.3 µM, a GI50 (HOP-62 NSCLC) of 5.32 µM and a TGI (HOP-62 NSCLC) of 22.3 µM. For the same compound, the GI50 (HOP-92 NSCLC) was 4.25 µM, the TGI (HOP-92 NSCLC) was 23.8 µM and the GI50 (RXF 393 renal) was 1.4 µM. For the same compound, the TGI (RXF 393 renal) was 6.61 µM, the GI50 (NCI-H23 lung) was 8.87 µM and the TGI (NCI-H23 lung) was 38.2 µM. For the same compound, the GI50 (SK-MEL-5 melanoma) was 3.43 µM, the TGI (SK-MEL-5 melanoma) was 13.3 µM and the GI50 (A549 NSCLC) was 6.47 µM. For the same compound, the TGI (A549 NSCLC) was over 100 µM, the GI50 (COLO 205 colon) was 3.48 µM and the TGI (COLO 205 colon) was 12.7 µM. The GI50 (OVCAR-8 ovarian) was 4.86 µM, the TGI (OVCAR-8 ovarian) was 46.9 µM and the GI50 (NCI-H226 lung) was 17.7 µM. For the same compound, the TGI (NCI-H226 lung) was 55.7 µM, the GI50 (NCI/ADR-RES ovarian) was 3.55 µM and the TGI (NCI/ADR-RES ovarian) was 25.3 µM. For the same compound, the GI50 (HS 578T breast) was 2.35 µM, the TGI (HS 578T breast) was 31.1 µM and the GI50 (TK-10 renal) was 15 µM. For the same compound, the TGI (TK-10 renal) was 44.2 µM, the GI50 (M14 melanoma) was 2.01 µM and the TGI (M14 melanoma) was 13.7 µM. The GI50 (MCF7 breast) was 2.81 µM, the TGI (MCF7 breast) was 47.2 µM and the GI50 (RPMI-8226 leukemia) was 4.66 µM. For the same compound, the TGI (RPMI-8226 leukemia) was 25 µM, the GI50 (SN12C renal) was 6.55 µM and the TGI (SN12C renal) was 22.3 µM. For the same compound, the GI50 (SF-295 CNS) was 2.21 µM, the TGI (SF-295 CNS) was 12.3 µM and the GI50 (OVCAR-3 ovarian) was 3.94 µM. It also gave a TGI (OVCAR-3 ovarian) of 17.4 µM, a GI50 (SK-MEL-28 melanoma) of 7.63 µM and a TGI (SK-MEL-28 melanoma) of 29.2 µM. The GI50 (SF-539 CNS) was 2.22 µM, the TGI (SF-539 CNS) was 8.24 µM and the GI50 (T-47D breast) was 5.36 µM. It also gave a TGI (T-47D breast) of 64.1 µM, a GI50 (NCI-H460 lung) of 3.99 µM and a TGI (NCI-H460 lung) of 18.1 µM. For the same compound, the GI50 (UACC-62 melanoma) was 2.17 µM, the TGI (UACC-62 melanoma) was 18.9 µM and the GI50 (HCC-2998 colon) was 6.11 µM. The TGI (HCC-2998 colon) was 20 µM, the GI50 (SK-MEL-2 melanoma) was 5.19 µM and the TGI (SK-MEL-2 melanoma) was 19 µM. For the same compound, the GI50 (SK-OV-3 ovarian) was 2.78 µM, the TGI (SK-OV-3 ovarian) was 9.77 µM and the GI50 (MDA-MB-231 breast) was 5.81 µM. The TGI (MDA-MB-231 breast) was 22.3 µM, the GI50 (BT-549 breast) was 3.79 µM and the TGI (BT-549 breast) was 18.9 µM.
